What was measured:
[1] = test system: in vivo platelet activity (acute platelet thrombus formation); conditions: cited from earlier work
[2] = test system: platelet activity; conditions: aspirin, blood aggregometry test; cited from earlier work
[3] = test system: LDL cholesterol; experiment: Copper ion catalysed LDL cholesterol oxidation (conjugated dienes at 234 nm, lag time); type: biochemical, human
Text: LDL cholesterol oxidation or protection therefrom can be determined by several methods. Kleinveld et al., Clin. Chem., 38(10):2066–2072 (1992) describes the methods for the LDL oxidation experiments described and used herein. A preferred way to practice the method encompasses extracting LDL cholesterol from whole blood samples collected from a subject using standard techniques. The extracted LDL cholesterol is divided into control and experimental samples. LDL oxidation is catalyzed by adding a copper ion solution to each LDL cholesterol sample. Copper ions are known to catalyze and enhance LDL cholesterol oxidation. […]
Copper ions accelerate the production of conjugated dienes in LDL cholesterol oxidation, which absorb light at 234 nm. Therefore, LDL cholesterol oxidation is monitored by following the increase in absorbance at 234 nm as a function of time as shown in FIG. 6. […]
As described above, LDL cholesterol oxidation is commonly measured by observing absorbance at 234 nm (Abs234nm) as a function of time while the LDL cholesterol is exposed to oxidative conditions. The antioxidant effectiveness of PROVEXCV™ and other substances was determined.
LDL cholesterol was prepared from human volunteer blood samples. […] To each sample a measured amount of copper ions was added.
After mixing, the Abs234nm of each solution was then monitored as a function of time. […]

Row | Molecule | dogs with renewed CFR's on epinephrine infusion ([1]; after abolishment of CFR's with 5–10 mg/kg of aspirin) | effect on CFR's ([1]; aspirin, Folts model, literature) | dosage at which platelet activity is inhibited ([1]; aspirin, known value) [mg/kg] | reactivation of inhibited platelet activity on epinephrine ([1]; aspirin, epinephrine 0.2 μg/Kg/min intravenously) | decrease of platelet activity, collagen stimulated [2] | lag time before LDL oxidation begins vs native LDL ([3]; Vitamin E 5.3 mg/L, CuCl2 5 μmol/L, 30° C., FIG. 8) | time LDL cholesterol protected from oxidation (lag time) ([3]; vitamin E at the described concentration, copper ions)
1 | CC(=O)Oc1ccccc1C(=O)O [aspirin] | 50–60 % of dogs | eliminates CFR's | 5 | can be reactivated | 30–40% |  | 
2 | vitamin E |  |  |  |  |  | delayed | about 95 minutes

Source: patent publication US7229651B2, “Dietary supplements containing natural ingredients” (Melaleuca, Inc., priority 1998, dated 2007)
